Where two headings read alike, the source gives them in different places.

A short description of data set [1]: ICR mouse pharmacokinetic research. The format is in vivo. Particulars: plasma, po, ICR mice, intragastric administration 5 mg/kg. How it is done:
ICR mice were used as test animals. The drug concentrations in plasma at different time points of the compounds in Comparative Example 1 and Example 17 of the present disclosure intragastrically administered to the mice were determined by LC/MS/MS method, to study the pharmacokinetic characteristics of the compounds of the present disclosure in mice.
Preparation for intragastric administration: An appropriate amount of the compound to be tested was weighed, added with an appropriate amount of DMSO: PEG 200=5%: 95% (v/v), shaken by vortex, and prepared into a solution with a final concentration of 0.5 mg/mL.
Intragastric administration group: After fasting overnight, the mice were intragastrically administered at a dose of 5 mg/kg and a volume of 10 mL/kg, and fed 4 h after the administration.
Intragastric administration group: About 100 μL of blood was collected through the orbital vein before administration and at 0.25 h, 0.5 h, 1 h, 2 h, 4 h, 8 h, 12 h and 24 h after administration.
The whole blood sample was put in an EDTA-K2 anticoagulant tube. The plasma was separated by centrifugation at 1500 g for 10 min. The collected upper layer plasma was stored at −40 to −20° C. before analysis.
The content of the compound to be tested in mouse plasma was determined by LC-MS/MS after the compound was intragastrically administered.

In data set [2] the target is T1, recombinant human KRAS G12C protein (Homo sapiens, UniProt P01116, G12C).
T1 construct: The recombinant human KRAS G12C protein (aa1-169)
T1 sequence (P01116 1-169 isoform P01116-2 G12C): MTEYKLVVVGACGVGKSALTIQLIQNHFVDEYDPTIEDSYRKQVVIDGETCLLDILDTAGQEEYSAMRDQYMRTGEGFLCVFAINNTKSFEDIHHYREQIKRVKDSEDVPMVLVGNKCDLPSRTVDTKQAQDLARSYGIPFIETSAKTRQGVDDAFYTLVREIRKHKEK
As to the kind of experiment: Covalent binding ability to KRAS G12C protein (LC-MS). Conditions: 3 μM, 5 min. How it is done: The following method was used to determine the covalent binding ability of the compounds of the present disclosure to recombinant human KRAS G12C protein under in vitro conditions.
The experimental procedure is briefly described as follows: The recombinant human KRAS G12C protein (aa1-169) was prepared with a reaction buffer (20 mM HEPES, 150 mM NaCl, 1 mM MgCl2, 1 mM DTT) at a concentration of 4 μM for later use. The test compound was prepared with DMSO into a 10 mM stock solution, which was then diluted with the reaction buffer for later use. First, 1.5 μL of the test compound diluted with the reaction buffer was added to each well (a final concentration of the reaction system was […]), then added with 23.5 μL of the reaction buffer, mixed well, then added with 25 μL of 4 μM recombinant human KRAS G12C protein for 5 min of incubation at room temperature, and added with 5 μL of acetic acid to stop the reaction. The samples were transferred to injection vials. The ratios of covalent binding between the test compounds and KRAS G12C protein were detected by Agilent 1290/6530 instrument, and the samples were analyzed in a liquid chromatography column (XBridge Protein BEH C4, 300 Å, 3.5 μm, 2.1 mm×50 mm). In the detection process, mobile phase A was 0.1% formic acid aqueous solution, mobile phase B was acetonitrile, the mobile phase elution program was as follows: mobile phase A was kept at 95% at 0-0.5 min, changed to 30% at 2.5 min for 0.5 min, and changed to 95% at 3.1 min for 1.9 min; and flow rate was 0.5 mL/min. Finally, the data was analyzed by MassHunter Workstation Software Bioconfirm Version B.08.00 to obtain the covalent binding rate between the test compound at a concentration of 3 μM and KRAS G12C protein under 5 min of incubation.

The subject of the next data set is NCI-H358 cells. Nature of the data set: Inhibition of NCI-H358 cell proliferation (CellTiter-Glo). The format is cell-based, human. Particulars: 120 h of culture, read-out: IC50 inhibiting NCI-H358 cell proliferation. How it is done:
The following method was used to determine the effect of the compounds of the present disclosure on the proliferation of NCI-H358 cells. NCI-H358 cells (containing KRAS G12C mutation) were purchased from the Cell Resource Center, Shanghai Institutes for Biology Sciences, Chinese Academy of Sciences, and cultured in RPMI 1640 medium containing 10% fetal bovine serum, 100 U penicillin, 100 μg/mL streptomycin and 1 mM sodium pyruvate. Cell viability was determined by CellTiter-Glo® Luminescent Cell Viability Assay Kit (Promega, Cat. No. G7573).
The experiment was conducted according to the steps in the kit instruction, which is briefly described as follows: The test compound was first prepared with DMSO into a 10 mM stock solution, which was then diluted with medium into a test sample with a final concentration of the compound ranging from 1000 nM to 0.015 nM Cells in the logarithmic growth phase were inoculated into a 96-well cell culture plate at a density of 800 cells per well, cultured overnight at 37° C. in a 5% CO2 incubator, and then added with the test compound for 120 h of culture. After the culture was completed, 50 μL of CellTiter-Glo detection solution was added to each well, shaken for 5 min and left to stand for 10 min. Subsequently, the luminescence value of the sample in each well was read by a microplate in a luminescence mode. The percentage of inhibition rate of the compounds at each concentration was calculated by comparing with the value of the control group (0.3% DMSO). Then a nonlinear regression analysis on the log concentration-inhibition rate of the compounds was performed by the software GraphPad Prism 5 to obtain the IC50 value of the compound inhibiting NCI-H358 cell proliferation. Table 2 IC50 data of compounds of the present disclosure inhibiting NCI-H358 cell proliferation Compound number IC50(nM)
On the technique in general: In ATP-based viability assays light output follows the ATP content of the culture.

For data set [3], the system named is p-ERK1/2 in NCI-H358 cells. Nature of the data set: Inhibition of p-ERK1/2 in NCI-H358 cells (HTRF kit). The data set is classed as cell-based. Conditions: Homo sapiens, hEGF 5 nM stimulation, read-out: IC50 inhibiting p-ERK1/2 in NCI-H358 cells. From the text: The following method was used to determine the inhibitory activity of the compounds of the present disclosure on p-ERK1/2 in NCI-H358 cells. In this method, Advanced phospho-ERK1/2 (Thr202/tyr204) kit (Cat. No. 64AERPEH) from Cisbio company was used, and the detailed experimental operation can be referred to the kit instruction. NCI-H358 cells (containing KRAS G12C mutation) were purchased from the Cell Resource Center, Shanghai Institutes for Biology Sciences, Chinese Academy of Sciences.
The experimental procedure is briefly described as follows: NCI-H358 cells were cultured in RPMIH 1640 complete medium containing 10% fetal bovine serum, 100 U penicillin, 100 μg/mL streptomycin and 1 mM sodium pyruvate. […] The 96-well plate was placed on ice for half an hour of lysis, and then the lysate was detected according to the instruction of the Advanced phospho-ERK1/2 (Thr202/tyr204) kit. Finally, the fluorescence intensity of each well at emission wavelengths of 620 nm and 665 nM was measured on a microplate reader in TF-FRET mode at an excitation wavelength of 304 nm, and the ratio of the fluorescence intensity of each well at 665/620 was calculated. The percentage of inhibition rate of the test compounds at each concentration was calculated by comparing with the fluorescence intensity of the control group (0.1% DMSO). […]
Background: TR-FRET usually uses a lanthanide donor and a delayed reading to cut background.

Usually half-life stands for how long it takes for the measured level to halve. For the molecule `C=CC(=O)N1C[C@@H]2C(=O)N(C)c3c(c4cc(Cl)c(-c5c(O)cccc5F)nc4n(-c4c(C)ccnc4C(C)C)c3=O)N2C[C@H]1C` (atropisomer, axis not shown) [Comparative Example 1, reference compound], in data set [1] (read-out: Area under curve AUC0-∞), the AUC(0-inf) turned out to be 4180 ng·h/mL. The Cmax in data set [1] (read-out: Blood concentration Cmax) came out at 928 ng/mL. Further, in data set [1] (read-out: Half-life T½ (converted)), the half-life was 1.95 h.
With `C=CC(=O)N1C[C@@H]2C(=O)N(C)c3c(c4cc(F)c(-c5ccc(F)c6sc(N)nc56)nc4n(-c4c(C)ccnc4C(C)C)c3=O)N2C[C@H]1C` [Compound 7, (2R,4aR)-3-acryloyl-10-(2-amino-7-fluorobenzo[d]thiazol-4-yl)-11-fluoro-8-(2-isopropyl-4-methylpyridin-3-yl)-2,6-dimethyl-2,3,4,4a,6,8-hexahydro-1H-pyrazino [1′,2′:4,5]pyrazino[2,3-c][1,8]naphthyridine-5,7-dione], in data set [2], the “Covalent binding rate (%)” value was determined as 42.5%. Besides, the IC50 in the data set on NCI-H358 cells (Homo sapiens, NCI-H358, 120 h) is 67.2 nM.
Consider `C=CC(=O)N1C[C@@H]2C(=O)N(C)c3c(c4cc(F)c(-c5nc(N)ccc5Cl)nc4n(-c4c(C)ccnc4C(C)C)c3=O)N2C[C@H]1C` [Compound 10, (2R,4aR)-3-acryloyl-10-(6-amino-3-chloropyridin-2-yl)-11-fluoro-8-(2-isopropyl-4-methylpyridin-3-yl)-2,6-dimethyl-2,3,4,4a,6,8-hexahydro-1H-pyrazino [1′,2′:4,5]pyrazino[2,3-c][1,8] naphthyridine-5,7-dione], for which the “Covalent binding rate (%)” value in data set [2] worked out at 45.5%. Also, the IC50 with NCI-H358 cells (Homo sapiens, NCI-H358, 120 h) is 73.4 nM.
In the case of `C=CC(=O)N1C[C@@H]2C(=O)N(C)c3c(c4cc(Cl)c(-c5c(O)cccc5F)nc4n(-c4c(SC)ccnc4C(C)C)c3=O)N2C[C@H]1C` [Compound 16, (2R,4aR)-3-acryloyl-11-chloro-10-(2-fluoro-6-hydroxyphenyl)-8-(2-isopropyl-4-(methylthio)pyridin-3-yl)-2,6-dimethyl-2,3,4,4a,6,8-hexahydro-1H-pyrazino [1′,2′:4,5]pyrazino[2,3-c][1,8] naphthyridine-5,7-dione], in data set [2], the “Covalent binding rate (%)” value was found to be 38.5%. For the same molecule, the IC50 came to 39.9 nM in the data set with NCI-H358 cells and 93 nM in data set [3].
For the molecule `C=CC(=O)N1C[C@@H]2C(=O)N(C)c3c(c4cc(Cl)c(-c5c(O)cccc5F)nc4n(-c4c(SC)ccnc4C(C)C)c3=O)N2C[C@H]1C` [Compound 18], in the data set with NCI-H358 cells, the IC50 is 98.5 nM.

(Values after patent US20230295163A1, “TETRACYCLIC DERIVATIVE, METHOD FOR PREPARING SAME AND USE THEREOF IN MEDICINE” (ZHEJIANG HISUN PHARMACEUTICAL CO., LTD., priority 2020, published 2023).)
